Earlier results in patent publication US11058674B2 (priority 2016, dated 2021).
Where two headings read alike, the source gives them in different places.

How the values were obtained:
[1] = design: key: ∘: Effective; settings: alcohol addiction
[2] = believed, from literature
[3] = design: key: ∘: Effective; settings: alcohol addiction; remark: listed apart in the source
[4] = tested on: mouse; design: key to Conditioned place preference Relapse: ∘: Effective; settings: for CPP acquisition caused by cocaine / CPP expression caused by cocaine: N/OFQ: intraventricular administration to a mouse
[5] = tested on: mouse; design: key: ∘: Effective; x: Ineffective; settings: cocaine addiction
[6] = tested on: rat; design: key to Self-administration Seeking behavior: ∘: Effective; x: Ineffective
[7] = tested on: mouse; design: key: ∘: Effective; settings: cocaine addiction

Compound	Self-administration Seeking behavior [1]	Self-administration Uptake behavior [1]	Conditioned place preference Acquisition [3]	Conditioned place preference Expression [3]	Conditioned place preference Relapse [3]	CPP acquisition caused by cocaine [4]	CPP expression caused by cocaine [4]	Conditioned place preference Acquisition [5]	other results
CNC(=O)Cn1c(=O)n(C2CCN([C@@H]3Cc4cccc5cccc3c45)CC2)c2ccccc21.Cl.O [MT-7716, (R)-2-{3-[1-(acenaphthen-1-yl)piperidin-4-yl]-2-oxo-2,3-dihydro-1H-benzimidazol-1-yl}-N-methylacetamide hydrochloride monohydrate]	∘ ^12)	∘ ^11)	–	–	–	–	–	–	–
Cc1ccccc1C(c1ccccc1C)N1C2CCC1CC(O)(c1ccccc1)C2 (centres unmarked) [SCH221510]	–	–	–	–	–	–	–	–	migration to brain [2]: low migration to brain
Cl.O=C1NCN(c2ccccc2)C12CCN([C@H]1CC[C@@H]3CCCc4cccc1c43)CC2 [Ro64-6198, (1S,3aS)-8-(2,3,3a,4,5,6-hexahydro-1H-phenalen-1-yl)-1-phenyl-1,3,8-triaza-spiro[4.5]decan-4-one hydrochloride]	–	∘ ^10)	∘ ^13)	∘ ^13)	∘ ^13)	–	–	–	–
Cl.O=C1NCN(c2ccccc2)C12CCN(C1Cc3cccc4cccc1c34)CC2 (centres unmarked) [Ro65-6570, 8-acenaphthen-1-yl-phenyl-1,3,8-triaza-spiro[4.5]decan-4-one hydrochloride]	–	–	–	–	–	does not affect	does not affect	x ^19)	Conditioned place preference Expression [5]: x ^18)
N/OFQ: Endogenous ligands of the NOP receptor, named nociceptin and orphanin FQ	∘ ^9)	∘ ^9)	∘ ^13)	∘ ^13)	∘ ^13)	blocks	blocks	–	Self-administration Seeking behavior ([6]; cocaine addiction): x ^16); cocaine seeking behavior induced by a stress after the extinction of the cocaine self-administration ([6]; rat): does not suppress; Conditioned place preference Acquisition [7]: ∘ ^17); Conditioned place preference Expression [7]: ∘ ^18)
O=C1Cc2ccccc2N1C1CCN(C2CCC3CCCc4cccc2c43)CC1 (centres unmarked) [AT-202, 1-[1-(2,3,3a,4,5,6-hexahydro-1H-phenalen-1-yl)piperidin-4-yl]-indolin-2-one]	–	–	–	–	–	does not affect	–	x ^20)	relapse of CPP caused by a stress ([4]; cocaine CPP): suppresses; Conditioned place preference Relapse ([4]; cocaine addiction): ∘ ^20)
